Experimental data published in patent US10689318B2, “Bisphenol having fluorene skeleton, method for producing same, polyarylate resin, (meth)acrylate compound and epoxy resin which are derived from the bisphenol” (TAOKA CHEMICAL CO., LTD., priority 2016, dated 2020).

Assays:
Format in all cases: physicochemical
[1] = Solubility test of (meth)acrylate compound; set-up: key: ◯: The sample is dissolved at room temperature.; Δ: The sample is dissolved when heated, and crystals are not precipitated even when the sample is cooled.; x: The sample is dissolved when heated, but crystals are precipitated when the sample is cooled, or the sample is not dissolved even when heated; settings: for Solubility (30 mass % concentration) Monofunctional acrylate OPPEA: 30 parts by weight acrylate + 70 parts 2-phenylphenoxyethyl acrylate; for Solubility (30 mass % concentration) Solvent EA: 30 parts by weight acrylate + 70 parts ethyl acetate; for Solubility (30 mass % concentration) Monofunctional acrylate POB-A: 30 parts by weight acrylate + 70 parts m-phenoxybenzyl acrylate; for Solubility (30 mass % concentration) Solvent MEK: 30 parts by weight acrylate + 70 parts methyl ethyl ketone; for Solubility (30 mass % concentration) Solvent PGME: 30 parts by weight acrylate + 70 parts propylene glycol monomethyl ether; for Solubility (30 mass % concentration) Solvent PGMEA: 30 parts by weight acrylate + 70 parts propylene glycol monomethyl ether acetate
Experimental: (9-2) Solubility Test of (Meth)Acrylate Compound
30 parts by weight of the (meth)acrylate compound and 70 parts by weight of each of the diluents (solvent or monofunctional acrylate) shown in Table 3 were mixed, and solubility was evaluated on the basis of the following evaluation criteria.
◯: The sample is dissolved at room temperature.
Δ: The sample is dissolved when heated, and crystals are not precipitated even when the sample is cooled.
x: The sample is dissolved when heated, but crystals are precipitated when the sample is cooled, or the sample is not dissolved even when heated.

[2] = Refractive index and Abbe number (Abbe refractometer, NMP solutions extrapolated to 100% by weight); settings: 20° C.; for Refractive index: 589 nm; for Abbe number: calculated from extrapolated refractive indices at 486, 589, 656 nm
Experimental: [5] Refractive Index and Abbe Number
The refractive index of each of the bisphenol, the polyarylate resin, the (meth)acrylate compound and the epoxy resin is a value determined using the following method and conditions. In addition, the Abbe number of each of the (meth)acrylate compound and the epoxy resin was calculated on the basis of the refractive index measured using the following method and conditions. • Apparatus: Abbe refractometer (“multiwavelength Abbe refractometer DR-2M” manufactured by ATAGO CO., LTD.) • Measurement wavelength: 589 nm (refractive index), 486, 589, 656 nm (Abbe number) • Measurement temperature: 20° C. • Refractive index of bisphenol: The bisphenol was dissolved in N-methyl-2-pyrrolidone (hereinafter, sometimes referred to as NMP) to prepare 5 wt %, 10 wt % and 15 wt % solutions, and the refractive index was measured for each of the solutions using the above-mentioned apparatus and conditions. Next, an approximate curve was derived from the obtained three measured values, and a value obtained by extrapolating the curve at 100% by weight was defined as a refractive index of each bisphenol. • Refractive index of polyarylate resin: A polyarylate resin powder was dissolved in NMP to prepare 1 wt %, 3 wt % and 5 wt % solutions, and the refractive index was measured for each of the solutions using the above-mentioned apparatus and conditions. Next, an approximate curve was derived from the obtained three measured values, and a value obtained by extrapolating the curve at 100% by weight was defined as a refractive index of each polyarylate resin. • Refractive index and Abbe number of (meth)acrylate compound: Each (meth)acrylate compound was dissolved in NMP to prepare a 5 wt %, 10 wt % and 15 wt % solutions (for Comparative Examples 4 and 5, 1 wt %, 3 wt % and 5 wt % solutions were prepared because the (meth)acrylate compound was hardly soluble in an organic solvent), and the refractive index at each wavelength was measured for each of the solutions using the above-mentioned apparatus and conditions. Next, an approximate curve was derived from the obtained three measured values, a value obtained by extrapolating the curve at 100% by weight was defined as a refractive index of each (meth)acrylate compound at each wavelength, and the Abbe number was calculated on the basis of the refractive index at each wavelength, which was determined as described above. • Refractive index and Abbe number of epoxy resin: Each epoxy resin was dissolved in NMP to prepare 5 wt %, 10 wt % and 15 wt % solutions, and the refractive index at each wavelength was measured for each of the solutions using the above-mentioned apparatus and conditions. Next, an approximate curve was derived from the obtained three measured values, a value obtained by extrapolating the curve at 100% by weight was defined as a refractive index of each epoxy resin at each wavelength, and the Abbe number was calculated on the basis of the refractive index at each wavelength, which was determined as described above.

[3] = 5% weight loss temperature (thermogravimetric instrument); settings: bisphenol; 10° C./min from room temperature to 500° C., nitrogen gas stream
Experimental: [6] 5% Weight Loss Temperature
Using a thermogravimetric instrument (TGA-50 from Shimadzu Corporation), measurement was performed with the temperature elevated at a rate of 10° C./min from room temperature to 500° C. under a nitrogen gas stream.

[4] = Glass transition temperature (DSC); settings: (meth)acrylate compound; DSC 10° C./min
Experimental: [4] Melting Point (Melt Endothermic Maximum Temperature in Differential Scanning Calorimetry (DSC)) and Glass Transition Temperature
5 mg of a sample was precisely weighed, and taken in an aluminum pan, measurement was performed under the following operation conditions with aluminum oxide as a control using a differential scanning calorimeter (DSC 7020 manufactured by SII NanoTechnology Inc.), and the detected melt endothermic maximum temperature was defined as a melting point. For a sample (amorphous material, resin or the like) in which a melt endothermic peak was not detected, the intersection of tangent lines at an inflection point was defined as a glass transition temperature (Tg).
• Temperature elevation rate: 10° C./min (for bisphenol and (meth)acrylate compound) and 20° C./min (for polyarylate resin) • Measurement range: 30 to 250° C. (for bisphenol), 150 to 250° C. (for polyarylate resin) and −30 to 350° C. (for (meth)acrylate compound) • atmosphere: Open, nitrogen: 40 ml/min

[5] = (meth)acrylate compound, 5, 10, 15 wt % NMP solutions (Comparative Examples 4 and 5: 1, 3, 5 wt %) extrapolated to 100% by weight
[6] = bisphenol, 5, 10, 15 wt % NMP solutions extrapolated to 100% by weight

Compound | Solubility (30 mass % concentration) Monofunctional acrylate OPPEA [1] | Solubility (30 mass % concentration) Solvent EA [1] | Solubility (30 mass % concentration) Monofunctional acrylate POB-A [1] | Solubility (30 mass % concentration) Solvent MEK [1] | Solubility (30 mass % concentration) Solvent PGME [1] | Solubility (30 mass % concentration) Solvent PGMEA [1] | Refractive index [2, 5] | Abbe number ([2]; (meth)acrylate compound) | 5% weight loss temperature [3] [°C] | Refractive index [2, 6] | Tg [4] [°C]
C=CC(=O)Oc1ccc(C2(c3ccc(OC(=O)C=C)c(C)c3)c3ccccc3-c3ccccc32)cc1C [Comparative Example 4] | x | x | x | x | x | x | 1.606 | 25.5 |  |  | 
Oc1c(Cc2ccccc2)cc(C2(c3cc(Cc4ccccc4)c(O)c(-c4ccccc4)c3)c3ccccc3-c3ccccc32)cc1-c1ccccc1 [Example 1] |  |  |  |  |  |  |  |  | 357 | 1.67 | 
C=CC(=O)OCCOc1ccc(C2(c3ccc(OCCOC(=O)C=C)c(C)c3)c3ccccc3-c3ccccc32)cc1C [Comparative Example 6] | ∘ | ∘ | ∘ | ∘ | x | ∘ | 1.591 | 23.1 |  |  | 0.0
OCCOc1ccc(C2(c3ccc(OCCO)c(-c4ccccc4)c3)c3ccccc3-c3ccccc32)cc1-c1ccccc1 [Reference Example 1] |  |  |  |  |  |  |  |  | 363 | 1.65 | 
C=CC(=O)Oc1ccc2ccccc2c1-c1c(OC(=O)C=C)ccc2ccccc12 [Reference Example 2] | x | ∘ | x | ∘ | x | x | 1.632 | 19.0 |  |  | 
Oc1ccc(C2(c3ccc(O)c(-c4ccccc4)c3)c3ccccc3-c3ccccc32)cc1-c1ccccc1 [Comparative Example 1] |  |  |  |  |  |  |  |  | 306 | 1.67 | 
C=CC(=O)Oc1c(Cc2ccccc2)cc(C2(c3cc(Cc4ccccc4)c(OC(=O)C=C)c(-c4ccccc4)c3)c3ccccc3-c3ccccc32)cc1-c1ccccc1 [Example 5] | ∘ | ∘ | ∘ | ∘ | ∘ | ∘ | 1.633 | 19.7 |  |  | 32.4
C=CC(=O)Oc1ccc(C2(c3ccc(OC(=O)C=C)c(-c4ccccc4)c3)c3ccccc3-c3ccccc32)cc1-c1ccccc1 [Comparative Example 5] | x | x | x | x | x | x | 1.644 | 21.4 |  |  | 
